Source: the METLIN SMRT retention time set (Domingo-Almenara et al. 2019)

Assay: gradient 5% acetonitrile 3 min, to 50% in 2 min, to 85% in 15 min, held 3 min, 100 µL/min
Conditions: column: Zorbax Extend-C18 2.1 x 50 mm; eluents: water / acetonitrile, 0.1% formic acid
Summary of the method: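 A Zorbax Extend-C18 column (2.1 × 50 mm, 1.8 μm) run at 100 μL/min with water and acetonitrile, both containing 0.1% formic acid, separated mixtures of ~100 pure standards. The HPLC was coupled to a quadrupole time-of-flight mass spectrometer operated in positive and negative ionization mode, with dead and dwell volumes of 40 μL and 900 μL. Each retention time was taken from a computationally picked adduct peak that was then manually inspected.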

Structure (SMILES) | RP-LC retention time
O=C(c1c[nH]c2ccccc12)N1CCN(c2cc(-c3cccs3)[nH]n2)CC1 | 731 s
O=C(c1ccc2c(c1)CCCN2S(=O)(=O)c1ccccc1)N1CCCC1 | 852 s
CS(=O)(=O)N(Cc1ccccn1)C1CN(C(=O)C2CCC2)C1 | 603 s
COc1ccc(NC(=O)N2CCC3(C2)C(=O)Nc2ccc(OC)cc23)cc1 (centres undefined) | 697 s
CC1CCCN(C(=O)C2CCN(c3cc(N4CCCCC4)ncn3)CC2)C1 (centres undefined) | 683 s
CCOC(=O)c1c(C)[nH]c(C(=O)N2CCCC(C(=O)NCc3cccc(C)c3)C2)c1C (centres undefined) | 863 s
CCN1CCN(c2cc(C)c3cc(NC(=O)CC(C)C)ccc3n2)CC1 | 560 s
CCc1noc(-c2cnc3nc(C)ccc3c2Nc2ccccc2C)n1 | 818 s
Cc1cc(C)c(NC(=O)Cn2cnc3onc(C)c3c2=O)c(C)c1 | 764 s
CCNc1cc(N2CCC(CCC(=O)NC(C)C)CC2)ncn1 | 598 s
CCCn1cc(CCNC(=O)c2ccnn2CC)c2cccnc21 | 678 s
COc1cccc2nnc(NC(=O)CCC(=O)NCC(C)C)n12 | 587 s
O=C(COc1cccc(Cl)c1)N1CCCN(C2CCN(CC3CC3)C2=O)CC1 (centres undefined) | 574 s
CCc1nn(C)c(=O)c2cc(S(=O)(=O)NCc3ccc(Cl)cc3)cn12 | 911 s
CC1CCC(NC(=O)C2CCN(c3cnn(Cc4ccccc4)c(=O)c3)CC2)CC1 (centres undefined) | 841 s
c1nc(N2CCOCC2)c2cn[nH]c2n1 | 340 s
Cc1ccc(S(=O)Cc2ccc(C(=O)N3CCN(c4ccccn4)CC3)o2)cc1 (centres undefined) | 587 s
CCOC(=O)c1c(C)[nH]c(CCC(=O)NCC2CCCO2)c1C (centres undefined) | 686 s
Cc1noc(C)c1S(=O)(=O)N1CCc2nn(Cc3ccccc3)c(=O)n2CC1 | 776 s
Cc1cccc(CN2CCCn3nc(C(=O)NCCc4cnc[nH]4)cc3C2=O)c1 | 610 s

Structure (SMILES) | RP-LC retention time
CCCn1ccc2sc(C)c(C(=O)NCCC(C)C)c2c1=O | 901 s
CN(C)c1ccc2c(c1)CN(C(=O)c1cc(C3CC3)[nH]n1)CCO2 | 588 s
O=C(CN1C(=O)C(C(=O)N2CCCC2)Sc2ccccc21)NCc1ccccc1 (centres undefined) | 870 s
O=C(CNC(=O)c1ccncc1)Nc1nc2ccccc2[nH]1 | 554 s
CCN1CCCn2cc(S(=O)(=O)Nc3ccc(F)cc3)cc2C1=O | 721 s
CCCc1nnc(NC(=O)CSc2ccc(NC(=O)C3CC3)nn2)s1 | 694 s
CCc1nc2c(=O)n(CC(=O)N3CCCCC3)nc(C)c2s1 | 673 s
Cc1ccc(-n2nc(C(=O)N3CCN(c4ccccn4)CC3)c3ncn(C)c(=O)c32)cc1 | 608 s
COc1ccc(C2CNC(=O)C2)cc1OC1CCCC1 (centres undefined) | 794 s
Cc1c(C(=O)N2CCN(C(=O)COc3ccccc3)CC2)[nH]c2ccccc12 | 819 s
CCc1cccc(NC(=O)Cn2ncc3c(c2=O)N(CC2CC2)C(=O)CS3)c1 | 859 s
O=C1CCCCC(Cc2ccccc2)(C(=O)NCCc2c[nH]c3ccccc23)N1 (centres undefined) | 791 s
Cc1nn(CC(=O)NCc2ccco2)c(=O)c2c(-n3cccc3)n(-c3ccccc3)nc12 | 881 s
O=C(Cn1ccn2nc(-c3ccccc3)c(CO)c2c1=O)N1CCN(c2ccccc2)CC1 | 800 s
CC(C)n1cnc2cc(CNC(=O)C3(c4ccccc4)CC3)ccc21 | 648 s
CCOC(=O)c1nn(-c2ccc(F)cc2)c(=O)c2c(NC(=O)C3CCCCC3)scc12 | 1250 s
OCCNc1nc(N2CCOCC2)nc2c1cnn2-c1ccc(Cl)cc1 | 824 s
Cc1cc(C)c(CN2CC(CNC(=O)N3CCCC3)C3(CCOCC3)C2)c(C)c1 (centres undefined) | 635 s
Cc1nn(-c2cc(N3CCCCC3)ncn2)c(C)c1CCC(=O)NC(C)CCc1ccco1 (centres undefined) | 941 s

The next lines start with the values.

RP-LC retention time | Structure (SMILES)
690 s | O=C(NCCCN1CCCC1=O)c1nc2ccccn2c1-c1ccc(Cl)cc1
1030 s | Cc1ccc(-c2nc(C3CC(=O)N(c4ccc(F)cc4)C3)no2)cc1 (centres undefined)
1200 s | COc1ccc(NC(=O)c2csc(-c3ccc(C)n3C)n2)c(OC)c1
794 s | COc1ccc(S(=O)(=O)N2CC[C@H](n3c(=O)n(C)c4cccnc43)C2)cc1
581 s | COc1ccc(CC(=O)NCCc2nc3cccnc3n2C)cc1
964 s | COc1cc(C(=O)Nc2nc(-c3ccc4c(c3)N(C)C(=O)CO4)c(C)s2)cc(OC)c1OC
967 s | CCOc1ccc(-c2nc(Cc3noc(-c4cccnc4)n3)c(C)o2)cc1
863 s | Cc1ccc(N2CCN(c3ncc(C(=O)O)c(C)n3)CC2)cc1
735 s | CCOC(=O)c1cccc(NC(=O)C2CCN(S(=O)(=O)c3cn(C)cn3)CC2)c1
1020 s | COc1ccccc1Cc1nc(-c2cn(-c3ccc(F)cc3)nn2)no1
636 s | Cc1ccn2cc(-c3ccc(NC(=O)c4ccccc4)cc3)nc2n1
821 s | Cc1nn(CC(=O)N2CCN(c3ccc(Cl)cc3)CC2)c(=O)c2noc(C)c12
661 s | CCn1cc(CCNC(=O)Nc2ccc3c(c2)OCCO3)c2cccnc21
974 s | COc1ccc(-c2noc(C3CCCN3C(=O)Nc3ccc(OC)c(Cl)c3)n2)cc1 (centres undefined)
811 s | O=C(c1ccc(OCC2CCCN2C(=O)Cc2ccc(Cl)cc2)cc1)N1CCOCC1 (centres undefined)
872 s | CCc1nc(OCC(=O)Nc2ccc(C)c(F)c2)c2ccccc2n1
859 s | CC1=C(c2ccc(C)cc2)S(=O)(=O)N=C1N1CCCN(C(=O)c2cccc(F)c2)CC1
876 s | CCS(=O)(=O)Nc1ccc(C2(C(=O)NCc3cccc(Cl)c3)CCC2)cc1
1040 s | O=C(Cn1cnc2c(sc3nc(-c4ccccc4)ccc32)c1=O)Nc1ccc(F)c(F)c1
1030 s | CCc1ccccc1NC(=O)c1cc(C)n2nccc2n1
702 s | COCCNc1c(-c2ccc(F)cc2)nc2sc(C(=O)N(C)C)c(C)n12
861 s | CCN1C(=O)c2cccc3c(NC(=O)CSc4ccc(Cl)cc4)ccc1c23
877 s | Cc1ccc(N2C(=O)CN(S(C)(=O)=O)CC2(C)C(=O)NCc2ccc(F)cc2)cc1Cl (centres undefined)
829 s | CCOC(=O)c1cccc(NC(=O)Cn2ccc3ccc(-c4nnc(C)o4)cc32)c1
846 s | Cc1ccccc1CNC(=O)C1(C)CCCN(C(=O)Nc2ccc3c(c2)OCCO3)C1 (centres undefined)

RP-LC retention time | Structure (SMILES)
915 s | CCOc1ccccc1NC(=O)N1C[C@@H]2CN(S(=O)(=O)c3ccc(C)cc3)C[C@H](C1)O2
853 s | CC(C)c1nc(-c2ccc(OC3CCN(S(=O)(=O)c4cn(C)cn4)C3)cc2)no1 (centres undefined)
785 s | CCn1nccc1C(=O)N1CCCC1c1ccc(F)cc1 (centres undefined)
732 s | CC(C)CNC(=O)c1ccc(CN2CCN(Cc3ccc(F)cc3)C(=O)C2=O)cc1
766 s | COc1ccc(NC(=O)Cn2nc(N3CCOCC3)c3ccccc3c2=O)c(OC)c1
1090 s | Cc1noc(-c2cccn2Cc2ccc(Cl)cc2)n1
823 s | CCc1ccc(NC(=O)Cn2nc3c(N(C)C4CCCCC4)nccn3c2=O)cc1
786 s | COc1ccc(S(=O)(=O)N2CCc3nn(CC4CC4)c(=O)n3CC2)cc1Cl
608 s | CCc1ccc(C(=O)c2cnc3cc4c(cc3c2N2CCN(CC)CC2)OCO4)cc1
810 s | COc1ccc2nc(NC(=O)Cc3csc4nc(-c5ccccc5)cn34)sc2c1
876 s | CCCc1nc(-c2c(C)cc(C)nc2NC(=O)C2CCCCC2)no1
814 s | COc1ccc(NC(=O)Cn2cccc(-c3nc(-c4ccc(OC)c(OC)c4)no3)c2=O)cc1Cl
897 s | N#Cc1ccc(-c2nc(C3CC(=O)N(c4ccc(F)cc4)C3)no2)cc1 (centres undefined)
1080 s | CCOc1ccc(-c2nc(CNC(=O)Nc3ccccc3OCC)c(C)o2)cc1
697 s | CN(C)c1ccc(NC(=O)Cn2c(=O)cc(-c3nc(C4CC4)no3)c3ccccc32)cc1
881 s | O=C(NCc1cnoc1-c1ccc(F)cc1)c1ccc2c(c1)OCO2
1100 s | Cc1cccc(C)c1NC(=O)CSc1cc(N2CCN(c3ccccc3F)CC2)ncn1
760 s | COc1cc(=O)n2c(c1C(=O)Nc1cccc(Br)c1)CCCC2
690 s | CCOc1ccc(NC(=O)Cn2nc3n(c2=O)CCCCC3)cc1
827 s | O=C(c1ccc(Br)cc1)N1CCC(n2c(-c3ccco3)nc3cccnc32)C1 (centres undefined)
805 s | CN(C)c1ccc(CNC(=O)c2cc(=O)n3c(nc4ccccc43)s2)cc1
788 s | COc1cc(CNC(=O)c2nc(CCS(=O)(=O)c3ccc(F)cc3)no2)cc(OC)c1OC
1040 s | Cc1sc(NC(=O)COc2ccc(Cl)cc2)nc1-c1ccc2c(c1)N(C)C(=O)CO2
948 s | Cc1nn(-c2ccccc2)c(C)c1S(=O)(=O)N1CCC(C(=O)Nc2ccc(F)cc2)CC1
823 s | CC1(C)C(=O)N(CC(=O)Nc2ccc3c(c2)OCCO3)c2ccccc21
